Drawing on ChEMBL document CHEMBL1149709, “Synthesis and SAR of 2-aryl pyrido[2,3-d]pyrimidines as potent mGlu5 receptor antagonists” (Bioorg Med Chem Lett, 2007), this text covers IC50 and Activity for 23 compounds.

SMILES strings stand for the structures. pIC50: −log10 of the molar value.

In the first data set the target is Metabotropic glutamate receptor 5 (Rattus norvegicus, UniProt P31424). Kind of data set: Antagonistic activity at rat mGluR5 expressed in CHO cells assessed as inhibition of quisqualate stimulated calcium mobilization by FLIPR technology. It counts as functional, cell-based.
Chain of Metabotropic glutamate receptor 5 (P31424 whole entry): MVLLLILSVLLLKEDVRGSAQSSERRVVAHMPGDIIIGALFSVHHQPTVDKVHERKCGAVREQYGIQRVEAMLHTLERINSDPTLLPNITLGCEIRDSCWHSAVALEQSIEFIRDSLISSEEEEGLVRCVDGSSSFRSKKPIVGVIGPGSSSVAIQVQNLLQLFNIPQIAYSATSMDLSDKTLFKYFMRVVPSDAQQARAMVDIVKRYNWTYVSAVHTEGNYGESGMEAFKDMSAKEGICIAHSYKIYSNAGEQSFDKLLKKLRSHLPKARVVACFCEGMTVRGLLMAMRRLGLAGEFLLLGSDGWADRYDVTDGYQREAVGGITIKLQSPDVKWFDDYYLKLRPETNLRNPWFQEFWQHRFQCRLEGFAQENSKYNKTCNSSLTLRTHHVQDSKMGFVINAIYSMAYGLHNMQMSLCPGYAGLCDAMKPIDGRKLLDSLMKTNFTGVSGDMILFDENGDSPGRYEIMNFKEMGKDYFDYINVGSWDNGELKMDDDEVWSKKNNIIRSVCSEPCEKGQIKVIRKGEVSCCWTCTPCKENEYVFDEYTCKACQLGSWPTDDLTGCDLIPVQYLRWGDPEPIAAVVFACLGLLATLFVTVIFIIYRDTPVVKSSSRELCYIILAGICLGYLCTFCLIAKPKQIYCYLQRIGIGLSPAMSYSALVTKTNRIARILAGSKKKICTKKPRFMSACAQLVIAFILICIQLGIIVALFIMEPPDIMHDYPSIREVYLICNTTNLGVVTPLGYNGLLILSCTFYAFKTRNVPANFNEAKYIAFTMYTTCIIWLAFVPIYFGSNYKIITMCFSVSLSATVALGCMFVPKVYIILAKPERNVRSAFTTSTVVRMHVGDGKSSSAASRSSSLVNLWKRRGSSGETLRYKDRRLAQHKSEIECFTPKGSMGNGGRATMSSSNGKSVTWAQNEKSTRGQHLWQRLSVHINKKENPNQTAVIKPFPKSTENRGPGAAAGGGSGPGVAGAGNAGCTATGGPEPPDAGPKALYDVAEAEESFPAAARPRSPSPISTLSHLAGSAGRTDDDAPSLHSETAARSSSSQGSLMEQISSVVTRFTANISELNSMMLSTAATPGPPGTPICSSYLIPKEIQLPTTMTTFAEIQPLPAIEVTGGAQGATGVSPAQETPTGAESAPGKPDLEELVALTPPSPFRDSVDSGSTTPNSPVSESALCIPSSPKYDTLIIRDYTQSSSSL
Conditions: not given; call rule not given here
Background: Calcium flux is commonly read through the fluorescence of an indicator in the cells.
With `COc1cccc(-c2ncc3ccc(C)nc3n2)c1`, the pIC50 is 5.82.
For `Cc1ccc2cnc(-c3cccc(C#N)c3)nc2n1`, the pIC50 was 6.62.
For the compound `Cc1ccc2cnc(-c3cccc(S(C)(=O)=O)c3)nc2n1`, the pIC50 was under 4.52.
As for `COc1ccccc1-c1ncc2ccc(C)nc2n1`, the pIC50 was under 4.52.
On the same count and under the same terms, the same measure for `Cc1cccc(-c2ncc3ccc(C)nc3n2)c1`: 7.28.
On the same count and under the same terms, with `COC(=O)c1ccc(-c2ncc3ccc(C)nc3n2)cc1` the figure was under 4.52; with `Cc1ccc2cnc(-c3ccc(Br)cc3)nc2n1`, under 4.52.
For the compound `COc1cc(-c2ncc3ccc(C)nc3n2)cc(OC)c1OC`, the pIC50 is under 4.52.
Regarding `Brc1cccc(-c2ncc3cccnc3n2)c1`, the pIC50 was 6.48.
`COc1cc(C#N)cc(-c2ncc3cccnc3n2)c1`: the pIC50 was 8.31.
Turning to `Cc1cc(F)cc(-c2ncc3cccnc3n2)c1`, the pIC50 was 6.49.
On to `Cc1ccc2cnc(-c3ccc(C#N)cc3)nc2n1`, for which the pIC50 is under 4.52.
On the same count and under the same terms, with `Cc1ccc2cnc(-c3ccc(Cl)c(Cl)c3)nc2n1` the figure was under 4.52; with `Cc1ccc2cnc(-c3ccc(Cl)cc3Cl)nc2n1`, under 4.52.
On the same count and under the same terms, the same measure for `Cc1ccc2cnc(-c3cc(Cl)cc(Cl)c3)nc2n1`: 9.14; for `COc1cc(OC)cc(-c2ncc3ccc(C)nc3n2)c1`: 6.75.
The same measure, in the same setting: with `N#Cc1cccc(-c2ncc3cccnc3n2)c1` the figure was under 4.58; with `Clc1cc(Cl)cc(-c2ncc3cccnc3n2)c1`, 6.64; with `Cc1cc(F)cc(-c2ncc3ccc(C)nc3n2)c1`, 7.40.
`COc1cc(C#N)cc(-c2ncc3ccc(C)nc3n2)c1`: the pIC50 was 8.92.
For the compound `Cc1ccc2cnc(-c3ccccc3)nc2n1`, the pIC50 was 5.57.
Take `Cc1ccc2cnc(-c3cccc(CN)c3)nc2n1`: the pIC50 is under 4.52.
Take `Cc1ccc2cnc(-c3cccc(Br)c3)nc2n1`: the pIC50 is 7.42.

The subject of another data set is Rattus norvegicus. Kind of data set: Effect on rat monosodium iodoacetate model of osteoarthritis pain assessed as inhibition of change in hind paw weight at 10 mg/kg, po after 4 hrs. The following applies: in vivo. The class given is organism-based. Also noted: dose 10 mg/kg, route oral.
For `COc1cc(C#N)cc(-c2ncc3ccc(C)nc3n2)c1`, the result was Active.

The subject of the next data set is Rattus norvegicus. The data set can be described thus: Effect on rat monosodium iodoacetate model of osteoarthritis pain assessed as inhibition of change in hind paw weight at 10 mg/kg, po after 2 hrs. The class given is organism-based. Also noted: dose 10 mg/kg, route oral. Conditions: in vivo.
For the compound `COc1cc(C#N)cc(-c2ncc3ccc(C)nc3n2)c1`, the outcome was Active.

Broadly, the pIC50 is the IC50 on a negative log10 scale, so that one unit is a factor of ten.
